Reference: patent publication US9630991B2, “βsheet tapes ribbons in tissue engineering” (University of Leeds, priority 2002, dated 2017)
Where a SMILES comes first, the peptide text is derived from it. [ ]: non-standard residue; d: D form. Orn = NCCC[C@H](N)C(=O)O

How the values were obtained:
[1] = Self-assembly and gel formation in physiological solution / cell media; type: physicochemical
[2] = Fibril dimensions measured from TEM images; type: physicochemical; conditions: for L, fibril contour length / h, twist pitch / l, fibril persistence length / wn, width of the fibril at its narrowest point / ww, width of the fibril at its widest point: physiological conditions, TEM
Procedure: For, electron microscopy, samples were examined using a Phillips CM10 TEM at 80-100 kV accelerating voltage. Gels were diluted to a peptide concentration of 20 μM seconds before application to a glow-discharged, carbon-coated, copper grid followed by coating with uranyl acetate solution (4% w/v in water).
The dimensions of the fibrils formed by these peptides are given in Table 2, and TEM images from which these measurements were obtained are shown in FIGS. 6A-6D. These dimensions are—the length of a peptide fibril (contour length, L), the length of a peptide fibril before it curves (persistence length, l), the length of a full twist of a peptide fibril (twist pitch, h) the width of a fibril at its widest point (ww) and the width of the fibril at its narrowest point as it twists (wn).

[3] = Self-assembly and gel formation in physiological solution / cell media; type: physicochemical; remark: listed apart in the source
Description: A large number (dozens) of systematically varied peptides (typically 7-30 residues long) have been studied for soluble polymer and gel formation in cell media. […] Only peptides with a approximate net +2 or −2 charge per peptide at physiological pH=7.5, were able to form soluble polymers and gel cell media (The amount of net charge necessary per peptide to keep its polymers soluble in cell media will vary depending on the overall surface properties and solubility of the peptide tapes it forms). […] These peptides retained a predominantly monomeric state and their solutions in cell media were fluids up to around 40 mg/ml peptide concentration.
The rationally designed peptide P11-8 (Tables 1A and 1C) was dissolved in 145 mM NaCl, pH˜7.5 aqueous solution (the ionic strength and pH values of the solution were similar to those present in cell culture medium) or it was added directly in cell culture medium.
The fibrils of P11-8 entwined partly with each other forming a three dimensional network and turned the peptide solution in cell media into a homogeneous self-supporting gel at peptide concentration higher than 15 mg/ml.
The gel could be temporarily broken by mechanical agitation. The time it took the gel to reform depended on the peptide concentration, ranging from seconds for a 35 mg/ml peptide gel, to hours for a 15 mg/ml peptide gel.

[4] = system: tissue surrounding the injection site; parameters: species or system mice; conditions: mouse, in vivo
Description: Injection of P11-3 and P11-8 peptide solutions in cell media in mice has shown no effect of the presence of the peptide in the tissue surrounding the injection site as judged by histology after two and eight weeks following the peptide injection.

[5] = Net charge of peptide at pH 7.5 in physiological solution; type: physicochemical; conditions: per peptide, pH 7.5, physiological solution
L929 murine fibroblasts = assay: Contact cytotoxicity testing; type: cell-based; conditions: peptide gels in culture with L929 fibroblasts
Description: L929 murine fibroblasts growing in contact with the negative collagen control are shown in FIG. 5B and the positive control of cyanoacrylate adhesive is shown in FIG. 5A.

L929 fibroblast cells = assay: Cell density in peptide gels by ATPLite assay; type: cell-based, murine
Description: After establishing that the peptides tested were not cytotoxic when placed in culture with L929 fibroblast cells, the next stage was assessing the suitability of the collagen peptide gels for use in supporting cell proliferation.

[6] = Persistence length of tapes, ribbons and fibrils in water; type: physicochemical
Description: The tapes, ribbons, fibrils and fibres are increasingly more rigid structures.

[7] = Geometrical sizes from X-ray diffraction data and molecular modelling; type: physicochemical
Description: FIG. 2. Model of hierarchical self-assembly of beta-sheet forming peptides. Each peptide in beta-strand conformation, is depicted as a chiral rod-like unit (a). Local arrangements (c-f) and the corresponding global equilibrium conformations (c′-f′) for the hierarchical self-assembling structures formed in solutions of chiral molecules (a), which have complementary donor and acceptor groups, shown by arrows, via which they interact and align to form tapes (c). The black and the white surfaces of the rod (a) are reflected in the sides of the helical tape (c) which is chosen to curl towards the black side (c′). The outer sides of the twisted ribbon (d), of the fibril (e) and of the fibre (f) are all white. One of the fibrils in the fibre (f′) is drawn with darker shade for clarity. (e) & (f) show the front views of the edges of fibrils and fibres, respectively. Geometrical sizes (the numbers in parentheses show the values of the corresponding geometric sizes for P11-I and P11-II peptides, based on X-ray diffraction data and molecular modelling): inter-rod separation in a beta-sheet tape b2 (b2=0.47 nm); tape width, equal to the length of a rod, b1 (b1=4 nm); inter-ribbon distance in the fibril, α (α=1.6-2 nm for P11-I, and α=2-2.4 nm for P11-II).

[8] = Isotropic to nematic transition concentration; type: physicochemical; conditions: ribbons of P11-1, fibrils of P11-2
Procedure: We have also shown that above a certain peptide concentration cI/N (isotropic to nematic transition concentration) the semi-rigid ribbons, fibrils and fibres can align and thus transform their initially isotropic solution into a nematic liquid crystalline solution. The transition of the solution to the nematic liquid crystalline state happens at lower concentrations for more rigid polymers. For example, the nematic transition for solutions of ribbons of P11-1 peptide occurs at cI/N≈13 mM, whilst the nematic transition for solutions of the much more rigid fibrils of P11-2 peptide occurs at cI/N≈0.9 mM.

[9] = 145 mM NaCl, pH~7.5 or cell culture medium

Molecule	L, fibril contour length [2]	h, twist pitch [2]	l, fibril persistence length [2]	wn, width of the fibril at its narrowest point [2]	ww, width of the fibril at its widest point [2]	Net charge at pH 7.5 [5]	contact cytotoxicity (L929 murine fibroblasts)	also measured
CC(=O)N[C@@H](CCC(N)=O)C(=O)N[C@@H](CCC(N)=O)C(=O)N[C@@H](CCCNC(=N)N)C(=O)N[C@@H](Cc1ccccc1)C(=O)N[C@@H](CCCN)C(=O)N[C@@H](Cc1c[nH]c2ccccc12)C(=O)N[C@@H](CCCN)C(=O)N[C@@H](Cc1ccccc1)C(=O)N[C@@H](CCC(=O)O)C(=O)N[C@@H](CCC(N)=O)C(=O)N[C@@H](CCC(N)=O)C(N)=O [Peptide P11-8, CH3CO-Q-Q-R-F-O-W-O-F-E-Q-Q-NH2] (Ac-QQRF[Orn]W[Orn]FEQQ-NH2)	1.2-6.3 μm	140-320 nm	0.8-2.5 μm	4-11 nm	13-19 nm	+2	–	conformation / solution state in water ([1]; pH<7 in water): monomeric random coil conformation; self-assembly in low ionic strength media ([1]; pH=7.5, peptide concentrations up to 10 mg/ml): does not self-assemble; fibril full pitch [2, 9]: 200-300 nm; fibril length [2, 9]: several micrometers; fibril narrow width [2, 9]: 4-5 nm; fibril wide width [2, 9]: 12-15 nm; time for gel to reform after mechanical agitation ([3]; 15 mg/ml peptide gel): hours; time for gel to reform after mechanical agitation ([3]; 35 mg/ml peptide gel): seconds; fibrils and gels after sterilisation using an autoclave ([3]; cell media): reform after sterilisation using an autoclave; peptide concentration for homogeneous self-supporting gel ([3]; cell media): higher than 15 mg/ml; gel stability ([3]; room temperature, cell media): stable for at least several weeks; effect on tissue surrounding the injection site by histology [4]: no effect
CC(=O)N[C@@H](CC(N)=O)C(=O)N[C@@H](CC(N)=O)C(=O)N[C@@H](CCCNC(=N)N)C(=O)N[C@@H](Cc1ccccc1)C(=O)N[C@@H](CCC(=O)O)C(=O)N[C@@H](Cc1c[nH]c2ccccc12)C(=O)N[C@@H](CCC(=O)O)C(=O)N[C@@H](Cc1ccccc1)C(=O)N[C@@H](CCC(=O)O)C(=O)N[C@@H](CC(N)=O)C(=O)N[C@@H](CC(N)=O)C(N)=O [Peptide P11-15, CH3CO-N-N-R-F-E-W-E-F-E-N-N-NH2] (Ac-NNRFEWEFENN-NH2)	1.3-4 μm	118-220 nm	0.3-1.2 μm	5-7 nm	7-10 nm	−2	growing in contact with and onto the peptide gel matrix	support of cell growth (L929 fibroblast cells; L929 cells in peptide gels): moderately successful in supporting cell growth; macroscopic appearance of gel (L929 fibroblast cells; at end of cell culture experiment): little sign of macroscopic degradation
CC(=O)N[C@@H](CC(N)=O)C(=O)N[C@@H](CC(N)=O)C(=O)N[C@@H](CCCNC(=N)N)C(=O)N[C@@H](Cc1ccccc1)C(=O)N[C@@H](CCCN)C(=O)N[C@@H](Cc1c[nH]c2ccccc12)C(=O)N[C@@H](CCCN)C(=O)N[C@@H](Cc1ccccc1)C(=O)N[C@@H](CCC(=O)O)C(=O)N[C@@H](CC(N)=O)C(=O)N[C@@H](CC(N)=O)C(N)=O [Peptide P11-16, CH3CO-N-N-R-F-O-W-O-F-E-N-N-NH2] (Ac-NNRF[Orn]W[Orn]FENN-NH2)	1.2-3.9 μm	109-220 nm	0.5-1.6 μm	5-10 nm	11-20 nm	+2	growing in contact with and onto the peptide gel matrix	–
QQR^+FQWQFE^-QQ (QQRFQWQFEQQ; self assembling peptide P11-2)	–	–	–	–	–	0	–	persistence length of fibrils [6]: 20-70 μm; persistence length of ribbons [6]: 1 μm; inter-ribbon distance in the fibril, α [7]: 2-2.4 nm; inter-rod separation in a beta-sheet tape b2 [7]: 0.47 nm; tape width b1 [7]: 4 nm; cI/N, isotropic to nematic transition concentration [8]: ≈ 0.9 mM
